In patent US10266497B2 (ABIDE THERAPEUTICS, INC., priority 2017, dated 2019) one finds inhibition and IC50 data, which are given here for 15 molecules.

Assay [1] has as its target T1, MAGL (Mus musculus, UniProt O35678).
T1 sequence (O35678 1-303): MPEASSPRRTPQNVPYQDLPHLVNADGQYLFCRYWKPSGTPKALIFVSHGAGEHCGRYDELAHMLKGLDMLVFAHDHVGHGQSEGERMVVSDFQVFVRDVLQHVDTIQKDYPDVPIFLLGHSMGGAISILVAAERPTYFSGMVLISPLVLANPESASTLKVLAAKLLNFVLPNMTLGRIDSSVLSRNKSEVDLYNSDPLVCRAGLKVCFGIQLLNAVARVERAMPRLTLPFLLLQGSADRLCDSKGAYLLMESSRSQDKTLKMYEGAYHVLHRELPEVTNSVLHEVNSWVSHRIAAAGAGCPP
Nature of the assay: Mouse brain proteomes from inhibitor treated mice (oral gavage, sacrificed 4 h after administration). Format: in vivo. The arrangement: mouse brain membrane fraction for mouse assays; from tissue; host or cells: mouse brain (membrane fraction in vitro; brain proteomes of treated C57Bl/6J mice in vivo). Conditions: 5 mg/kg oral gavage, C57Bl/6J mice, brain proteome 4 h after administration, read-out: MAGL % inh. 5 mg/kg (mouse).

Assay [2] deals with T1, MAGL. Nature of the assay: In vitro competitive activity-based protein profiling, MAGL, mouse. Conditions: read-out: MAGL % inh. 1 μM (mouse).
Assay [3] has as its target T2, FAAH (Homo sapiens, UniProt O00519).
T2 sequence (O00519 1-579): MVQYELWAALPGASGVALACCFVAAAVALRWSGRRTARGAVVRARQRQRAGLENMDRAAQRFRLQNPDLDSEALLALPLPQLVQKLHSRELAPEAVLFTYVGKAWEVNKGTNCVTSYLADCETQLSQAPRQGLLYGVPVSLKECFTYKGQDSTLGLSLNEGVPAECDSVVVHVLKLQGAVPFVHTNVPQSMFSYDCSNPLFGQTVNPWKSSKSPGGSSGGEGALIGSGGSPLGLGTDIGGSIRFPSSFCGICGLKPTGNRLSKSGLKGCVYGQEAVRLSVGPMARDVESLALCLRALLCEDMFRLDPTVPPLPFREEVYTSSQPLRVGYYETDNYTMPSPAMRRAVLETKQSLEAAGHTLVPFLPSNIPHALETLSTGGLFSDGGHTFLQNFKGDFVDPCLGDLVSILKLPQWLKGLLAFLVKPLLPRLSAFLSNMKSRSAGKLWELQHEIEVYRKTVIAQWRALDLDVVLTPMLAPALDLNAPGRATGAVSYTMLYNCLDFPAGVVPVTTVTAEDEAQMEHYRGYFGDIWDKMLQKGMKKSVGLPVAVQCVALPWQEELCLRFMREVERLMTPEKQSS
Nature of the assay: In vitro competitive activity-based protein profiling, FAAH, human. Conditions: for inhibition at 1 µM: read-out: FAAH % inh. 1 μM (human).

In assay [4] the target is T3, FAAH (Mus musculus, UniProt O08914).
T3 sequence (O08914 1-579): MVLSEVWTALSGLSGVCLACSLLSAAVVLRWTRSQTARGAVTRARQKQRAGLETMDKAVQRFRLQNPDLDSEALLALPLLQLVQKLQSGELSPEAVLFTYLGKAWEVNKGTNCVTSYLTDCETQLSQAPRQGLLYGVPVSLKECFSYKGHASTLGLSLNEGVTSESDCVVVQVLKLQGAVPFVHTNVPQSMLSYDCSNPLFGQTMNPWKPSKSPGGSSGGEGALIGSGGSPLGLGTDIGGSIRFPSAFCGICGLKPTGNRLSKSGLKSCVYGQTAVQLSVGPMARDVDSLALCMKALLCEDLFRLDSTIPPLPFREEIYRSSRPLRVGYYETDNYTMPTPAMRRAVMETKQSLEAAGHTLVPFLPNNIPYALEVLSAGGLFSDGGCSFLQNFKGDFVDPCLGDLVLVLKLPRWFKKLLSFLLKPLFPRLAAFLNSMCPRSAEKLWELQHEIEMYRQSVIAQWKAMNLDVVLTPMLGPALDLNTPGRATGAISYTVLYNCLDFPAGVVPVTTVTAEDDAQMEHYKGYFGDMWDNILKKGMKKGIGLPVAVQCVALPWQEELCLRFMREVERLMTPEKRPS
Nature of the assay: In vitro competitive activity-based protein profiling, FAAH, mouse. Conditions: read-out: FAAH % inh. 1 μM (mouse).

For assay [5], the target named is T4, MAGL (Homo sapiens, UniProt Q99685).
T4 sequence (Q99685 1-303): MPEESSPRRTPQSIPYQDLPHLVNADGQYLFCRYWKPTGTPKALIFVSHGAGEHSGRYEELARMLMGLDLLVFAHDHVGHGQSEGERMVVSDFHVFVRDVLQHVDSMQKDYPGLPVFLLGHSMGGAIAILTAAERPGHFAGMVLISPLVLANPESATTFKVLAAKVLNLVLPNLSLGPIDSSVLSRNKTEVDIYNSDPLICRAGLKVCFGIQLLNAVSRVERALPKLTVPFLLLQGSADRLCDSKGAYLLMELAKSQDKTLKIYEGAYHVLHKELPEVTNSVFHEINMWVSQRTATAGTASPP
Nature of the assay: In vitro competitive activity-based protein profiling, MAGL, human. Conditions: for inhibition at 1 µM: read-out: MAGL % inh. 1 μM (human).

pIC50: −log10 of the molar value.

Consider `CNC(=O)c1ccn(C(=O)N2CC3CN(Cc4ccc(Cl)cc4)CC3C2)n1` (stereo not drawn) [Example 424, 1-(5-(4-chlorobenzyl)octahydropyrrolo [3,4-c]pyrrole-2-carbonyl)-N-methyl-1H-pyrazole-3-carboxamide], for which, on MAGL [1], the inhibition at 5 mg/kg is greater than 75%. The inhibition at 1 µM on MAGL [2] was greater than 75%.

As for `NC(=O)c1ccn(C(=O)N2CCC3(CCN(Cc4cc(Cl)ccc4Cl)C3)C2)n1` (stereo not drawn) [Example 426, 1-(7-(2,5-dichlorobenzyl)-2,7-diazaspiro[4.4]non-ane-2-carbonyl)-1H-pyrazole-3-carboxamide], on MAGL [1], the inhibition at 5 mg/kg was greater than 75%. Moreover, the inhibition at 1 µM at MAGL [2] was greater than 75%.

In the case of `O=C(O)c1ccn(C(=O)N2CCC3(CCCN3Cc3ccc(C(F)(F)F)cc3N3C4CCC3COC4)CC2)n1` [Example 82, 1-(1-(2-(3-oxa-8-azabicyclo[3.2.1]octan-8-yl)-4-(trifluoromethyl)benzyl)-1,8-diazaspiro[4.5]decane-8-carbonyl)-1H-pyrazole-3-carboxylic acid], the inhibition at 1 µM is 0 to 25% at FAAH [3], greater than 75% at MAGL [2], 0 to 25% at FAAH [4] and greater than 75% at MAGL [5].

Take `O=C(O)c1ccn(C(=O)N2CCC3(CCN(Cc4cccc(-c5ccccc5)c4)C3)CC2)n1` [Example 73, 1-(2-([1,1′-biphenyl]-3-ylmethyl)-2,8-diazaspiro[4.5]decane-8-carbonyl)-1H-pyrazole-3-carboxylic acid]: the inhibition at 1 µM on FAAH [3] is 0 to 25%; on MAGL [2], greater than 75%; at FAAH [4], 50 to 75%; on MAGL [5], greater than 75%.

Turning to `CN(Cc1ccc(Cl)c(N2CCCC2)c1)C1(C)CCN(C(=O)n2ccc(C(=O)O)n2)CC1` [Example 39, 1-(4-((4-chloro-3-(pyrrolidin-1-yl)benzyl)(methyl)amino)-4-methylpiperidine-1-carbonyl)-1H-pyrazole-3-carboxylic acid], the inhibition at 1 µM is 0 to 25% on FAAH [3], greater than 75% on MAGL [2], 0 to 25% on FAAH [4] and greater than 75% at MAGL [5].

For the molecule `O=C(O)c1ccn(C(=O)N2CCN(Cc3cccc(Oc4cncnc4)c3)CC2)n1` [Example 65, 1-(4-(3-(pyrimidin-5-yloxy)benzyl)piper-azine-1-carbonyl)-1H-pyrazole-3-carboxylic acid], the inhibition at 1 µM on FAAH [3] lay in the range of 0 to 25%; at MAGL [2], 25 to 50%; at FAAH [4], 0 to 25%; at MAGL [5], 50 to 75%.

In the case of `O=C(O)c1ccn(C(=O)N2CCC3(CCN(C(=O)c4cc5ccc(C(F)(F)F)cc5s4)C3)CC2)n1` [Example 58, 1-(2-(6-(trifluoromethyl)benzo[b]thiophene-2-carbonyl)-2,8-diazaspiro[4.5]decane-8-carbonyl)-1H-pyrazole-3-carboxylic acid], the inhibition at 1 µM is 0 to 25% on FAAH [3], greater than 75% at MAGL [2], 50 to 75% at FAAH [4] and greater than 75% at MAGL [5].

Take `O=C(O)c1ccn(C(=O)N2CCC3(CCN(Cc4ccc(N5CCOCC5)cc4Cl)C3)CC2)n1` [Example 169, 1-(2-(2-chloro-4-morpholinobenzyl)-2,8-diazaspiro[4.5]decane-8-carbonyl)-1H-pyrazole-3-carboxylic acid]: the inhibition at 1 µM at FAAH [3] lay within 0 to 25%; on MAGL [2] it was 0 to 25%; on FAAH [4], 0 to 25%; at MAGL [5], 25 to 50%.

As to `O=C(O)c1ccn(C(=O)N2CCN(Cc3cccc(Oc4ncccn4)c3)CC2)n1` [Example 62, 1-(4-(3-(pyrimidin-2-yloxy)benzyl)piper-azine-1-carbonyl)-1H-pyrazole-3-carboxylic acid], the inhibition at 1 µM at FAAH [3] was in the range of 0 to 25%; at MAGL [2] it was 0 to 25%; at FAAH [4], 0 to 25%; on MAGL [5] it was 50 to 75%.

The molecule `O=C(O)c1nn(C(=O)N2CC3CN(Cc4cc(Cl)ccc4Cl)CC3C2)cc1Cl` (stereo not drawn) [Example 136, 4-chloro-1-(5-(2,5-dichlorobenzyl)octa-hydropyrrolo[3,4-c]pyrrole-2-carbonyl)-1H-pyrazole-3-carboxylic acid] had a pIC50 at FAAH [3] of 6.00 to 7.00. Besides, the inhibition at 1 µM at FAAH [3], on MAGL [2], at FAAH [4] and at MAGL [5] was greater than 75% in each case.

Consider `O=C(O)c1ccn(C(=O)N2CCC3(CCN(Cc4cc(F)cc(F)c4)C3)CC2)n1` [Example 79, 1-(2-(3,5-difluorobenzyl)-2,8-diazaspiro[4.5]decane-8-carbonyl)-1H-pyrazole-3-carboxylic acid], for which the results for the inhibition at 10 µM on FAAH [3] (read-out: FAAH % inh. (human) at 10 uM) and at MAGL [5] (read-out: MAGL % inh. (human) at 10 uM) were 50 to 75% and greater than 75%, respectively. In addition, the inhibition at 1 µM on MAGL [2] and on FAAH [4] was 0 to 25% each time.

Regarding `O=C(O)c1ccn(C(=O)N2CCC3(CCN(Cc4ccc(Cl)cc4N4CCCC4)C3)CC2)n1` [Example 171, 1-(2-(4-chloro-2-(pyrrolidin-1-yl)benzyl)-2,8-diazaspiro[4.5]decane-8-carbonyl)-1H-pyrazole-3-carboxylic acid], the figures for the pIC50 at FAAH [3] and on MAGL [5] were 5.00 to 6.00 and 6.00 to 7.00, respectively. Besides, the inhibition at 1 µM was 0 to 25% at FAAH [3], greater than 75% on MAGL [2], 0 to 25% at FAAH [4] and greater than 75% at MAGL [5].

With `NC(=O)c1ccn(C(=O)N2CCC3(CCN(Cc4cc(Cl)cc(C(F)(F)F)c4)C3)C2)n1` (stereo not drawn) [Example 433, 1-(7-(3-chloro-5-(trifluoromethyl)benzyl)-2,7-diazaspiro[4.4]non-ane-2-carbonyl)-1H-pyrazole-3-carboxamide], the inhibition at 5 mg/kg at MAGL [1] is greater than 75%. Besides, the inhibition at 1 µM on MAGL [2] was greater than 75%.

As to `NC(=O)c1ccc(CN2CCN(C(=O)n3ccc(C(=O)O)n3)CC2)cc1C(F)(F)F` [Example 14, 1-(4-(4-Carbamoyl-3-(trifluoromethyl)benzyl)piperazine-1-carbonyl)-1H-pyrazole-3-carboxylic Acid], the inhibition at 1 µM on FAAH [3] lay within 0 to 25%; at MAGL [2], 25 to 50%; at FAAH [4], 0 to 25%; at MAGL [5] it was 25 to 50%.

As to `O=C(O)c1nn(C(=O)N2CC3CN(Cc4cccc(Oc5ccc(Cl)cc5)c4)CC3C2)cc1C(F)(F)F` (stereo not drawn) [Example 147, 1-(5-(3-(4-chlorophenoxy)benzyl)octahydro-pyrrolo[3,4-c]pyrrole-2-carbonyl)-4-(trifluoromethyl)-1H-pyrazole-3-carboxylic acid], the inhibition at 1 µM at FAAH [3] was greater than 75%; on MAGL [2], 0 to 25%; at FAAH [4] it was greater than 75%; on MAGL [5], greater than 75%.

By pIC50 is commonly meant the negative decadic logarithm of the IC50, by convention in mol/L. Lower therefore signals a large IC50.
